Test system: rabbit uterus
Experiment: Anti-McGinty and anti-Clauberg assays
Assay type: in vivo
Details: average of anti-McGinty and anti-Clauberg results relative to CDB-2914 = 1.00
How it was run: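 Immature female rabbits were primed with 5 μg estradiol s.c. daily for 6 days. Anti-McGinty: compound given intraluminally into a ligated uterine segment, with progesterone 267 μg/day s.c. for 3 days. Anti-Clauberg: compound oral or s.c. with progesterone 160 μg/day for 5 days. Histological endometrial proliferation inhibition, averaged over both assays, is given relative to CDB-2914.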

For `COCC(=O)[C@@]1(OC(C)=O)CC[C@H]2[C@@H]3CCC4=CC(=O)CCC4=C3[C@@H](c3ccc(N(C)C)cc3)C[C@@]21C` [CDB-4124, 21-methoxy-17α-acetoxy-11β-(4 N,N-dimethylaminophenyl)-19-norpregna-4,9-diene-3,20-dione], the “rabbit Biol. Act.” value was 3.60.

Reference: patent publication US20110053900A1, “PROGESTERONE ANTAGONISTS SUCH AS CDB-4124 IN THE TREATMENT OF BREAST CANCER” (Repros Therapeutics inc, priority 2008, published 2011)
